In US8673938B2, “Chemical compounds” (priority 2006, dated 2014):

Target: human 11βHSD1 enzyme (Homo sapiens (Human), UniProt P28845)
Experiment: biochemical
Conditions: not given

Sequence of human 11βHSD1 enzyme (P28845 whole entry): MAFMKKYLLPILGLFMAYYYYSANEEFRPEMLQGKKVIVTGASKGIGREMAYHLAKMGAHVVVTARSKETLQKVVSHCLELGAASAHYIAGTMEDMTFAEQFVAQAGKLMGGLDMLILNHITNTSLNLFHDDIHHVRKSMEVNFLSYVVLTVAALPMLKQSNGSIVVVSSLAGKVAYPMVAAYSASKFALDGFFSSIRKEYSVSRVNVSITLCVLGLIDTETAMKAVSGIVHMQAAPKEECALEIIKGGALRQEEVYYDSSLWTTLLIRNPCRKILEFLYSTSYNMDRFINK

Row | Structure (SMILES) | IC50
1 | O=C(O)C[C@@H]1CCCN(c2ccc(C(=O)NC3CCCCC3)c(N3CCNCC3)n2)C1 [{(3S)-1-[5-(cyclohexylcarbamoyl)-6-(piperazin-1-yl)pyridin-2-yl]piperidin-3-yl}acetic acid] | > 30 µM

Same assay, conditions: read-out: % inhibition of human 11-βHSD

Row | Structure (SMILES) | inhibition at 30 µM
2 | O=C(O)C[C@@H]1CCCN(c2ccc(C(=O)NC3CCCCC3)c(SCCc3cnccn3)n2)C1 [compound 132, 2-[(3S)-1-[5-(cyclohexyl-carbamoyl)-6-(2-pyrazin-2-ylethylsulfanyl)pyridin-2-yl]-3-piperidyl] acetic acid] | 98%
3 | O=C(O)C[C@@H]1CCCN(c2ccc(C(=O)NC3CCCCC3)c(N3CCCCC3)n2)C1 [compound 141, 2-[(3S)-1-[5-(cyclohexylcarbamoyl)-6-(1-piperidyl)pyridin-2-yl]-3-piperidyl]acetic acid] | 96%
4 | CCCSc1nc(N2CCC[C@@H](CC(=O)O)C2)ccc1C(=O)N1CCC(c2cnccn2)C1 (stereo partly drawn) [Example 116, 2-[(3S)-1-[6-propylsulfanyl-5-(3-pyrazin-2-ylpyrrolidine-1-carbonyl)pyridin-2-yl]-3-piperidyl]acetic acid] | 89%
5 | O=C(N[C@H]1C2CC3CC1C[C@@](O)(C3)C2)c1ccc(N2CCC[C@H]2C(=O)O)nc1SC1CCCC1 [Example 97, (2S)-1-[6-cyclopentylsulfanyl-5-[((2r,5s)-5-hydroxy-2-adamantyl)carbamoyl]pyridin-2-yl]pyrrolidine-2-carboxylic acid] | 97%
6 | CCCSc1nc(N2CCCC(OCC(=O)O)C2)ccc1C(=O)NC1CCCCC1 (stereo not drawn) [Example 46] | 83%
7 | CCCSc1nc(N2CCC(C(=O)O)CC2)ccc1C(=O)N[C@H]1C2CC3CC1C[C@@](O)(C3)C2 [Example 84, 1-[5-[[(2r,5s)-5-hydroxy-2-adamantyl]carbamoyl]-6-propylsulfanyl-pyridin-2-yl]piperidine-4-carboxylic acid] | 101%
8 | CCCSc1nc(N2CCCC(OC(C)C(=O)O)C2)ccc1C(=O)NC1CCCCC1 (stereo not drawn) [Example 44] | 85%
9 | CCCSc1nc(N2CCC[C@H](CC(=O)O)C2)ccc1C(=O)N(C)C1CCCCC1 [Example 168, 2-[(3R)-1-[5-(Cyclohexyl-methyl-carbamoyl)-6-propylsulfanyl-pyridin-2-yl]-3-piperidyl]acetic acid] | 108%
10 | O=C(O)C[C@H]1CCN(c2ccc(C(=O)N[C@H]3C4CC5CC3C[C@](O)(C5)C4)c(SC3CCCCC3)n2)C1 [Example 100, 2-[(3R)-1-[6-cyclohexylsulfanyl-5-[((2r,5s)-5-hydroxy-2-adamantyl)carbamoyl]pyridin-2-yl]pyrrolidin-3-yl]acetic acid] | 92%
11 | O=C(O)C[C@@H]1CCCN(c2ccc(C(=O)NC3CCCCC3)c(NCCc3ccc(Cl)cc3)n2)C1 [compound 142, 2-[(3S)-1-[6-[2-(4-chlorophenyl)ethylamino]-5-(cyclohexylcarbamoyl)pyridin-2-yl]-3-piperidyl]acetic acid] | 94%
12 | O=C(O)C[C@@H]1CCCN(c2ccc(C(=O)NC3CCCCC3)c(SC3CCCC3)n2)C1 [Example 52, 2-[(3S)-1-[5-(cyclohexylcarbamoyl)-6-cyclopentylsulfanyl-pyridin-2-yl]-3-piperidyl]acetic acid] | 92%
13 | CCCSc1nc(N2CCC[C@@H](CC(=O)O)C2)ccc1C(=O)N1CCC(C(N)=O)CC1 [Example 120, 2-[(3S)-1-[5-(4-carbamoylpiperidine-1-carbonyl)-6-propylsulfanyl-pyridin-2-yl]-3-piperidyl]acetic acid] | 104%
14 | O=C(O)C[C@H]1CCCN(c2ccc(C(=O)NC3CCCCC3)c(SC3CCCC3)n2)C1 [Example 55, 2-[(3R)-1-[5-(cyclohexylcarbamoyl)-6-cyclopentylsulfanyl-pyridin-2-yl]-3-piperidyl]acetic acid] | 89%
15 | CC(C)CCSc1nc(N2CCC[C@@H](CC(=O)O)C2)ccc1C(=O)NC1C2CC3CC1CC(O)(C3)C2 (stereo partly drawn) [Example 104, 2-[(3S)-l-[5-[[(2r,5s)-5-hydroxy-2-adamantyl]carbamoyl)-6-(3-methylbutylsulfanyl)pyridin-2-yl]-3-piperidyl]acetic acid] | 87%
16 | O=C(O)C[C@@H]1CCCN(c2ccc(C(=O)N[C@H]3C4CC5CC3C[C@@](O)(C5)C4)c(SC3CCCC3)n2)C1 [Example 94] | 90%
17 | CCCSc1nc(N2CCCC(CC(=O)O)C2)ccc1C(=O)NC1CCCCC1 (stereo not drawn) [Example 5, 2-[1-[5-(cyclohexylcarbamoyl)-6-propylsulfanyl-pyridin-2-yl]-3-piperidyl]acetic acid] | 86%
18 | O=C(O)C[C@@H]1CCCN(c2ccc(C(=O)N[C@H]3C4CC5CC3C[C@](OC(F)F)(C5)C4)c(SC3CCCCC3)n2)C1 [Example 176, 2-[(3S)-1-[6-Cyclohexylsulfanyl-5-[[(2r,5s)-5-(difluoromethoxy)-2-adamantyl]carbamoyl]pyridin-2-yl]-3-piperidyl]acetic acid] | 92%
19 | CCCOc1nc(N2CCC[C@@H](CC(=O)O)C2)ccc1C(=O)N[C@H]1C2CC3CC1C[C@](OC(F)F)(C3)C2 [Example 181, 2-[(3S)-1-[5-[[(2r,5s)-5-(Difluoromethoxy)-2-adamantyl]carbamoyl]-6-propoxy-pyridin-2-yl]-3-piperidyl]acetic acid] | 93%

Row | Structure (SMILES) | inhibition at 30 µM
20 | O=C(O)C[C@@H]1CCCN(c2ccc(C(=O)NC3CCCCC3)c(N3CCN(C(=O)OCc4ccccc4)CC3)n2)C1 [compound 150, 2-[(3S)-1-[5-(cyclohexylcarbamoyl)-6-(4-phenylmethoxy-carbonylpiperazin-1-yl)pyridin-2-yl]-3-piperidyl]acetic acid] | 74%
21 | CCCSc1nc(N2CCC[C@@H](CC(=O)O)C2)c(F)cc1C(=O)NC1CCCCC1 [Example 186, (S)-2-(1-(5-(Cyclohexylcarbamoyl)-3-fluoro-6-(propylthio)pyridin-2-yl)piperidin-3-yl)acetic acid] | 104%
22 | CN(CCc1ccccc1)c1nc(N2CCC[C@@H](CC(=O)O)C2)ccc1C(=O)NC1CCCCC1 [compound 153, 2-[(3S)-1-[5-(cyclohexylcarbamoyl)-6-(methyl-phenethyl-amino)pyridin-2-yl]-3-piperidyl]acetic acid] | 92%
23 | CCCSc1nc(N2CCC[C@H]2C(=O)O)ccc1C(=O)NC1C2CC3CC(C2)CC1C3 (stereo partly drawn) [Example 65, (2S)-1-[5-(2-adamantylcarbamoyl)-6-propylsulfanyl-pyridin-2-yl]pyrrolidine-2-carboxylic acid] | 89%
24 | CCCSc1nc(N2CCC[C@@H](CC(=O)O)C2)ccc1C(=O)N(C)C1CCOCC1 [Example 174, [(3S)-1-{5-[Methyl(tetrahydro-2H-pyran-4-yl)carbamoyl]-6-(propylthio)pyridin-2-yl}piperidin-3-yl]acetic acid] | 92%
25 | CCCSc1nc(Sc2ccc(C(=O)O)cc2)ccc1C(=O)NC1CCCCC1 [Example 15, 4-[5-(cyclohexylcarbamoyl)-6-propylsulfanyl-pyridin-2-yl]sulfanylbenzoic acid] | 73%
26 | CCCSc1nc(N2CCC[C@@H](CC(=O)O)C2)ccc1C(=O)NC12CC3CC(CC(C3)C1)C2 [Example 172, {(3S)-1-[5-(Adamantan-1-ylcarbamoyl)-6-(Propylthio)pyridin-2-yl]piperidin-3-yl}acetic acid] | 88%
27 | COc1nc(N2CCC[C@@H](CC(=O)O)C2)ccc1C(=O)NC1CCCCC1 [compound 139, 2-[(3S)-1-[5-(cyclohexyl-carbamoyl)-6-methoxy-pyridin-2-yl]-3-piperidyl] acetic acid] | 89%
28 | CCCSc1nc(N2CCC(C(=O)O)C(C)C2)ccc1C(=O)NC1CCCCC1 (stereo not drawn) [Example 36] | 89%
29 | CCCSc1nc(N2CCC[C@@H](CC(=O)O)C2)ccc1C(=O)N1CCC(C(F)(F)F)CC1 [Example 119, 2-[(3S)-1-[6-propylsulfanyl-5-[4-(trilfuoromethyl)piperidine-1-carbonyl]pyridin-2-yl]-3-piperidyl]acetic acid] | 99%
30 | CCCSc1nc(Sc2ccc(OCC(=O)O)cc2)ccc1C(=O)NC1CCCCC1 [Example 19, 2-[4-[5-(cyclohexylcarbamoyl)-6-propylsulfanyl-pyridin-2-yl]sulfanylphenoxy]acetic acid] | 61%
31 | CCCSc1nc(N2CCC[C@@H](CC(=O)O)C2)ccc1C(=O)N1CCCCC1 [Example 115, 2-[(3S)-1-[5-(piperidine-1-carbonyl)-6-propylsulfanyl-pyridin-2-yl]-3-piperidyl]acetic acid] | 93%
32 | CCCSc1nc(N2CCC(C(=O)O)(C(C)C)CC2)ccc1C(=O)NC1CCCCC1 [Example 35, 4-[5-(cyclohexylcarbamoyl)-6-propylsulfanyl-pyridin-2-yl]-4-propan-2-yl-piperidine-4-carboxylic acid] | 93%
33 | CC(C)CCSc1nc(N2C[C@@H]3[C@H](C2)[C@H]3C(=O)O)ccc1C(=O)N[C@H]1C2CC3CC1C[C@@](O)(C3)C2 [Example 106, (1R,5S)-3-[5-[((2r,5s)-5-hydroxy-2-adamantyl)carbamoyl]-6-(3-methylbutylsulfanyl)pyridin-2-yl]-3-azabicyclo[3.1.0]hexane-6-carboxylic acid] | 95%
34 | CCCSc1nc(N2CCCC(C(=O)O)CC2)ccc1C(=O)NC1CCCCC1 (stereo not drawn) [Example 31, 1-[5-(cyclohexylcarbamoyl)-6-propylsulfanyl-pyridin-2-yl]azepane-4-carboxylic acid] | 94%
35 | CCCSc1nc(N2CCC[C@@H](CC(=O)O)C2)ccc1C(=O)N[C@H]1C2CC3CC1C[C@@](S(C)(=O)=O)(C3)C2 [Example 126b, 2-[(3S)-1-[5-[((2r,5s)-5-methylsulfonyl-2-adamantyl)carbamoyl]-6-propylsulfanyl-pyridin-2-yl]-3-piperidyl]acetic acid] | 99%
36 | CCCOc1nc(N2CCC[C@@H](CC(=O)O)C2)ccc1C(=O)N[C@H]1C2CC3CC1C[C@@](O)(C3)C2 [Example 109, 2-[(3S)-1-[5-[[(2r,5s)-5-hydroxy-2-adamantyl]carbamoyl]-6-propoxy-pyridin-2-yl]-3-piperidyl]acetic acid] | 88%
